What follows are compounds tested against T1, HIF-2α HIS TAG-PASB Domain (Homo sapiens, UniProt Q99814) (assay: HIF-2α Scintillation Proximity Assay (SPA)). Conditions: 150 nM Compound 211 probe, 100 nM HIF-2α HIS TAG-PASB Domain; read-out: SPA IC50.
T1 construct: 100 nM HIF-2α HIS TAG-PASB Domain
T1 sequence (Q99814 240-350 limits assumed): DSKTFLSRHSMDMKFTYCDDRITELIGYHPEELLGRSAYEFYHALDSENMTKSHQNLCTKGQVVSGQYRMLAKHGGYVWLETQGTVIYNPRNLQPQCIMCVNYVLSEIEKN
Assay type: binding
Procedure: The total assay volume was about 100 μL in the following configuration: 2 μL compound in 100% DMSO, 88 μL buffer with protein and probe and 10 μL of SPA beads. […] The percent inhibition was determined and IC50 values were calculated using the Dotmatics system based on the following equation: % inhibition=[(high control−sample)/(high control−low control)]×100.
In the case of `CC(C)(C)OC(=O)N[C@H]1C[C@@H](O)c2c(S(=O)(=O)C(F)(F)F)ccc(Oc3cc(F)cc(C#N)c3)c21` (relative stereo) [Compound 42, tert-butyl(cis-7-(3-cyano-5-fluorophenoxy)-3-hydroxy-4-((trifluoromethyl)sulfonyl)-2,3-dihydro-1H-inden-1-yl)carbamate], the IC50 is reported as 2.2 µM. In the case of `N#CN=S(=O)(CF)c1ccc(Oc2cc(F)cc(C#N)c2)c2c1[C@H](O)[C@H](F)C2` (single isomer, unassigned) [Compound 41], the IC50 is reported as 0.13 µM. `N#CN=S(=O)(CF)c1ccc(Oc2cc(F)cc(C#N)c2)c2c1[C@H](O)CC2` (single isomer, unassigned) [Compound 46] gave an IC50 of 7.2 µM. `N#CN=S(=O)(CF)c1ccc(Oc2cc(F)cc(C#N)c2)c2c1[C@H](O)CC2` (single isomer, unassigned) [Compound 47] showed an IC50 of 1.4 µM. For `N#CN=S(=O)(CF)c1ccc(Oc2cc(F)cc(C#N)c2)c2c1[C@H](O)C(F)(F)C2` (single isomer, unassigned) [Compound 50], the IC50 was 0.024 µM. Compound `N#CN=S(=O)(c1ccc(Oc2cc(F)cc(C#N)c2)c2c1[C@H](O)[C@H](F)C2)C(F)F` (single isomer, unassigned) [Compound 61] has an IC50 of 12.4 µM. Compound `N#CN=S(=O)(c1ccc(Oc2cc(F)cc(C#N)c2)c2c1[C@H](O)[C@H](F)C2)C(F)F` (single isomer, unassigned) [Compound 63] has an IC50 of 16.1 µM. `C=CCN=S(=O)(c1ccc(Oc2cc(F)cc(C#N)c2)c2c1[C@H](O)C(F)(F)C2)C(F)(F)F` (single isomer, unassigned) [Compound 72] was tested, and the IC50 was 0.068 µM. Work on `CS(=O)(=NC#N)c1ccc(Oc2cc(F)cc(C#N)c2)c2c1[C@H](O)C(F)(F)[C@H]2F` (single isomer, unassigned) [Compound 82] yielded an IC50 of 2.4 µM. `CS(=O)(=NC#N)c1ccc(Oc2cc(F)cc(C#N)c2)c2c1[C@@H](O)C(F)(F)[C@@H]2F` (single isomer, unassigned) [Compound 84] gave an IC50 of 1.57 µM. Compound `CS(=O)(=NC#N)c1ccc(Oc2cc(F)cc(C#N)c2)c2c1[C@@H](O)C(F)(F)[C@@H]2F` (single isomer, unassigned) [Compound 86] has an IC50 of 9.9 µM. `N=S1(=O)c2ccc(Oc3cc(F)cc(F)c3)c(C(F)F)c2C(O)C1(F)F` (single isomer, unassigned) [Compound 163, 4-(difluoromethyl)-5-(3,5-difluorophenoxy)-2,2-difluoro-3-hydroxy-1-imino-2,3-dihydro-1H-1λ^4-benzo[b]thiophene 1-oxide] gave an IC50 of 0.059 µM. `O=S(=O)(c1ccc(Oc2ccc3[nH]ncc3c2)c2c1C(O)C(F)(F)C2)C(F)(F)F` (centres unmarked) [Compound 19, 4-((1H-Indazol-5-yl)oxy)-2,2-difluoro-7-((trifluoromethyl)sulfonyl)-2,3-dihydro-1H-inden-1-ol] was tested, and the IC50 was 4.9 µM. Work on `C=C1CC(O)c2c(S(C)(=O)=O)ccc(Oc3cc(F)cc(Cl)c3)c21` (centres unmarked) [Compound 44, 4-(3-chloro-5-fluorophenoxy)-3-methylene-7-(methylsulfonyl)-2,3-dihydro-1H-inden-1-ol] yielded an IC50 of 3.39 µM. For `O=S(=O)(c1ccc(Oc2cc(F)cc(Cl)c2)c2c1[C@H](O)C[C@@H]2CO)C(F)(F)F` [Compound 45, (1R,3S)-4-(3-chloro-5-fluorophenoxy)-3-(hydroxymethyl)-7-((trifluoromethyl)sulfonyl)-2,3-dihydro-1H-inden-1-ol], the IC50 was 0.73 µM. Compound `CS(=O)(=O)N=S(=O)(CF)c1ccc(Oc2cc(F)cc(C#N)c2)c2c1[C@H](O)C(F)(F)C2` (stereo partly drawn) [Compound 48, N—(((S)-7-(3-cyano-5-fluorophenoxy)-2,2-difluoro-3-hydroxy-2,3-dihydro-1H-inden-4-yl)(fluoromethyl)(oxo)-λ^6-sulfanylidene)methanesulfonamide] has an IC50 of 5.6 µM. Compound `CS(=O)(=O)c1ccc(Oc2cc(F)cc(C#N)c2)c2c1[C@H](O)CC2(F)F` [Compound 52, 3-[(1R)-3,3-difluoro-1-hydroxy-7-methylsulfonyl-indan-4-yl]oxy-5-fluoro-benzonitrile] has an IC50 of 6.5 µM. `C[C@]1(F)Cc2c(Oc3cc(F)cc(C#N)c3)ccc(S(C)(=O)=O)c2[C@@H]1O` [Compound 62, 3-fluoro-5-(((1S,2S)-2-fluoro-1-hydroxy-2-methyl-7-(methylsulfonyl)-2,3-dihydro-1H-inden-4-yl)oxy)benzonitrile] showed an IC50 of 16.1 µM. `CS(=O)(=O)c1ccc(Oc2cc(F)cc(C#N)c2)c2c1[C@H](O)C(F)(F)[C@H]2O` [Compound 75, 3-[(1S,3S)-2,2-difluoro-1,3-dihydroxy-7-methylsulfonyl-indan-4-yl]oxy-5-fluoro-benzonitrile] showed an IC50 of 8.7 µM. `CS(=O)(=O)c1ccc(Oc2cncc(Br)c2)c2c1C(=O)C(F)(F)C2` [Compound 87, 4-((5-Bromopyridin-3-yl)oxy)-2,2-difluoro-7-(methylsulfonyl)-2,3-dihydro-1H-inden-1-one] gave an IC50 of 5.3 µM. Work on `CS(=O)(=O)c1ccc(Oc2cncc(Br)c2)c2c1[C@H](O)[C@H](F)C2` [Compound 90, (1S,2R)-4-((5-Bromopyridin-3-yl)oxy)-2-fluoro-7-(methylsulfonyl)-2,3-dihydro-1H-inden-1-ol] yielded an IC50 of 1.28 µM. `CS(=O)(=O)c1ccc(Oc2cncc(F)c2)c2c1[C@H](O)C(F)(F)[C@H]2F` [Compound 94, (1S,3S)-2,2,3-trifluoro-4-((5-fluoropyridin-3-yl)oxy)-7-(methylsulfonyl)-2,3-dihydro-1H-inden-1-ol] was tested, and the IC50 was 2.1 µM. `CS(=O)(=O)c1ccc(Oc2cncc(Cl)c2)c2c1[C@H](O)C(F)(F)[C@H]2F` [Compound 96, (1S,3S)-4-((5-chloropyridin-3-yl)oxy)-2,2,3-trifluoro-7-(methylsulfonyl)-2,3-dihydro-1H-inden-1-ol] was tested, and the IC50 was 2.3 µM. `N#Cc1cc(F)cc(Oc2ccc(S(N)(=O)=O)c3c2[C@@H](O)C(F)(F)[C@H]3O)c1` [Compound 101, (1R,3S)-7-(3-cyano-5-fluoro-phenoxy)-2,2-difluoro-1,3-dihydroxy-indane-4-sulfonamide] gave an IC50 of 3.7 µM. For `CS(=O)(=O)c1ccc(Oc2cncc(C#N)c2)c2c1[C@H](O)C(F)(F)[C@H]2F` [Compound 107, 5-(((1S,3S)-2,2,3-trifluoro-1-hydroxy-7-(methylsulfonyl)-2,3-dihydro-1H-inden-4-yl)oxy)nicotinonitrile], the IC50 was 23.9 µM. In the case of `N#Cc1cncc(Oc2ccc(S(=O)(=O)CF)c3c2[C@H](F)C(F)(F)[C@H]3O)c1` [Compound 109, 5-(((1S,3S)-2,2,3-trifluoro-7-((fluoromethyl)sulfonyl)-1-hydroxy-2,3-dihydro-1H-inden-4-yl)oxy)nicotinonitrile], the IC50 is reported as 2.2 µM. Work on `O=S1(=O)CCc2c1ccc(Oc1cc(F)cc(Cl)c1)c2Br` [Compound 114, 4-Bromo-5-(3-chloro-5-fluorophenoxy)-2,3-dihydrobenzo[b]thiophene 1,1-dioxide] yielded an IC50 of 4.4 µM. `N#Cc1c(Oc2cc(F)cc(Cl)c2)ccc2c1CCS2(=O)=O` [Compound 115, 5-(3-Chloro-5-fluorophenoxy)-2,3-dihydrobenzo[b]thiophene-4-carbonitrile 1,1-dioxide] gave an IC50 of 4.9 µM. For `O=C1c2c(ccc(Oc3cc(F)cc(Cl)c3)c2Br)S(=O)(=O)C1(F)F` [Compound 118, 4-Bromo-5-(3-chloro-5-fluorophenoxy)-2,2-difluorobenzo[b]thiophen-3(2H)-one 1,1-dioxide], the IC50 was 1.4 µM. With `NC1c2c(ccc(Oc3cc(F)cc(F)c3)c2C(F)F)S(=O)(=O)C1F` (centres unmarked) [Compound 130, 3-amino-4-(difluoromethyl)-5-(3,5-difluorophenoxy)-2-fluoro-2,3-dihydrobenzo[b]thiophene 1,1-dioxide] the IC50 was 1.5 µM. Work on `N#Cc1cc(F)cc(Oc2ccc3c(c2C(F)F)C(=N)C(F)S3(=O)=O)c1` (centres unmarked) [Compound 137, 3-((4-(difluoromethyl)-2-fluoro-3-imino-1,1-dioxido-2,3-dihydrobenzo[b]thiophen-5-yl)oxy)-5-fluorobenzonitrile] yielded an IC50 of 5.8 µM. `COCCNC1c2c(ccc(Oc3cc(F)cc(C#N)c3)c2C(F)F)S(=O)(=O)C1(F)F` (centres unmarked) [Compound 146, 3-((4-(Difluoromethyl)-2,2-difluoro-3-((2-methoxyethyl)amino)-1,1-dioxido-2,3-dihydrobenzo[b]thiophen-5-yl)oxy)-5-fluorobenzonitrile] was tested, and the IC50 was 2.89 µM. For `N#Cc1cc(F)cc(Oc2ccc3c(c2C(F)F)[C@H](N)C(F)(F)S3(=O)=O)c1` [Compound 148, (S)-3-((3-Amino-4-(difluoromethyl)-2,2-difluoro-1,1-dioxido-2,3-dihydrobenzo[b]thiophen-5-yl)oxy)-5-fluorobenzonitrile], the IC50 was 13.4 µM. In the case of `Cc1cc(C#N)cc(Oc2ccc3c(c2C(F)F)C(=O)C(F)(F)S3(=O)=O)c1` [Compound 155, 3-((4-(Difluoromethyl)-2,2-difluoro-1,1-dioxido-3-oxo-2,3-dihydrobenzo[b]thiophen-5-yl)oxy)-5-methylbenzonitrile], the IC50 is reported as 18.7 µM. `N#Cc1cc(F)cc(Oc2ccc3c(c2Br)C(=O)C(F)(F)S3(=O)=O)c1` [Compound 157, 3-((4-Bromo-2,2-difluoro-1,1-dioxido-3-oxo-2,3-dihydrobenzo[b]thiophen-5-yl)oxy)-5-fluorobenzonitrile] showed an IC50 of 9.7 µM. For `N#CN=S1(=O)CC(O)c2c1ccc(Oc1cc(F)cc(F)c1)c2C(F)F` (centres unmarked) [Compound 159, N-(4-(difluoromethyl)-5-(3,5-difluorophenoxy)-3-hydroxy-1-oxido-2,3-dihydro-1λ^4-benzo[b]thiophen-1-ylidene)cyanamide], the IC50 was 17.4 µM. In the case of `N=S1(=O)CC(O)c2c1ccc(Oc1cc(F)cc(F)c1)c2C(F)F` (centres unmarked) [Compound 160, 4-(Difluoromethyl)-5-(3,5-difluorophenoxy)-3-hydroxy-1-imino-2,3-dihydro-1H-1λ^4-benzo[b]thiophene 1-oxide], the IC50 is reported as 14.2 µM.

Same assay, conditions: SPA IC50, 150 nM Compound 211 probe, 100 nM HIF-2α HIS TAG-PASB Domain
`O=S1(=O)c2ccc(Oc3cc(F)cc(Cl)c3)cc2C(O)C1(F)F` (centres unmarked) [Compound 126, 5-(3-Chloro-5-fluorophenoxy)-2,2-difluoro-3-hydroxy-2,3-dihydrobenzo[b]thiophene 1,1-dioxide] showed an IC50 of 1.88 µM.

Reference: patent publication US10098878B2, “HIF-2α inhibitors for treating iron overload disorders” (The Board of Regents of the University of Texas System, priority 2014, dated 2018)
